One assay has as its target T1, CPB2.8ΔCTE (Leishmania mexicana, UniProt P36400).
T1 construct: Wild-type recombinant CPB without the C-terminal extention (i.e. CPB2.8ΔCTE); Dr. Jeremy Mottram (Wellcome Centre for Molecular Parasitology, University of Glasgow)
The assay can be described thus: Leishmania mexicana cysteine protease B (CPB) peptidase activity assay (Ki). It counts as biochemical. Particulars: Ki, inhibitors of Leismania mexicana CPB protease. How it is done:
Unless otherwise stated, all general chemicals and biochemicals were purchased from either the Sigma Chemical Company, Poole, Dorset, U.K or from Fisher Scientific UK, Loughborough, Leicestershire, U.K. Absorbance assays were carried out in flat-bottomed 96-well plates (Spectra; Greiner Bio-One Ltd., Stonehouse, Gloucestershire, U.K.) using a SpectraMax PLUS384 plate reader (Molecular Devices, Crawley, U.K.). Fluorescence high throughput assays were carried out in either 384-well microtitre plates (Corning Costar 3705 plates, Fisher Scientific) or 96-well ‘U’ bottomed Microfluor W1 microtitre plates (Thermo Labsystems, Ashford, Middlesex, U.K.). Fluorescence assays were monitored using a SpectraMax Gemini fluorescence plate reader (Molecular Devices). For substrates employing either a 7-amino-4-methylcoumarin (AMC) or a 7-amino-4-trifluoromethylcoumarin (AFC) fluorophore, assays were monitored at an excitation wavelength of 365 nm and an emission wavelength of 450 nm and the fluorescence plate reader calibrated with AMC. For substrates employing a 3-amino-benzoyl (Abz) fluorophore, assays were monitored at an excitation wavelength of 310 nm and an emission wavelength of 445 nm; the fluorescence plate reader calibrated with 3-amino-benzamide (Fluka). Unless otherwise indicated, all the peptidase substrates were purchased from Bachem UK, St Helens, Merseyside, UK. Substrates utilizing fluorescence resonance energy transfer methodology (i.e. FRET-based substrates) were synthesized at Incenta Limited using published methods (Atherton & Sheppard, Solid Phase Peptide Synthesis, IRL Press, Oxford, U.K, 1989) and employed Abz (2-aminobenzoyl) as the fluorescence donor and 3-nitro-tyrosine [Tyr(NO2)] as the fluorescence quencher (Meldal, M. and Breddam, K., Anal. Biochem, 195, 141-147, 1991). Hydroxyethylpiperazine ethanesulfonate (HEPES), tris-hydroxylmethyl aminomethane (tris) base, bis-tris-propane and all the biological detergents (e.g. CHAPS, zwittergents, etc.) were purchased from CN Biosciences UK, Beeston, Nottinghamshire, U.K. Glycerol was purchased from Amersham Pharmacia Biotech, Little Chalfont, Buckinghamshire, U.K. Stock solutions of substrate or inhibitor were made up to 10 mM in 100% dimethylsulfoxide (DMSO) (Rathburns, Glasgow, U.K.) and diluted as appropriately required. In all cases the DMSO concentration in the assays was maintained at less than 1% (vol./vol.).
Assay protocols were based on literature precedent (Table 4; Barrett, A. J., Rawlings, N. D. and Woessner, J. F., 1998, Handbook of Proteolytic Enzymes, Academic Press, London and references therein) and modified as required to suit local assay protocols. Enzyme was added as required to initiate the reaction and the activity, as judged by the change in fluorescence upon conversion of substrate to product, was monitored over time. All assays were carried out at 25±1° C.
Wild-type recombinant CPB without the C-terminal extention (i.e. CPB2.8ΔCTE; Sanderson, S. J., et. al., Biochem. J., 347, 383-388, 2000) was obtained from Dr. Jeremy Mottram (Wellcome Centre for Molecular Parasitology, The Anderson College, University of Glasgow, Glasgow, U.K.). Activity assays were carried out in 100 mM sodium acetate; pH 5.5 containing 1 mM EDTA; 200 mM NaCl and 10 mM DTT (Alves, L. C., et. al., Mol. Biochem. Parasitol, 116, 1-9, 2001) using 0.25 nM enzyme. […] The rate of conversion of substrate to product was derived from the slope of the increase in fluorescence monitored continuously over time.
The apparent inhibition constant (Ki) for each compound was determined on the basis that inhibition was reversible and occurred by a pure-competitive mechanism. The Ki values were calculated, from the dependence of enzyme activity as a function of inhibitor concentration, by direct regression analysis (Prism v 3.02) using Equation 2 (Cornish-Bowden, A., 1995.). [formula]

The next assay deals with Wild-type cruzipain (Trypanosoma cruzi, UniProt P25779). Description: Trypanosoma cruzi cruzipain peptidase activity assay (Ki). It counts as biochemical. The procedure, abridged:
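Native cruzipain from T. cruzi Dm28 epimastigotes, 2.5 nM, in 100 mM sodium phosphate pH 6.75 with 1 mM EDTA and 10 mM L-cysteine, 25 °C, DMSO <1%. Rates taken from continuous fluorogenic substrate read; Ki by regression assuming reversible pure-competitive inhibition.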

Where [1] appears, read: read-out: Ki, inhibitors of cruzain and cruzipains.

Like-named read-outs stand apart in the source and are kept apart here.

T1 sequence (P36400 126-343, stated change not applied): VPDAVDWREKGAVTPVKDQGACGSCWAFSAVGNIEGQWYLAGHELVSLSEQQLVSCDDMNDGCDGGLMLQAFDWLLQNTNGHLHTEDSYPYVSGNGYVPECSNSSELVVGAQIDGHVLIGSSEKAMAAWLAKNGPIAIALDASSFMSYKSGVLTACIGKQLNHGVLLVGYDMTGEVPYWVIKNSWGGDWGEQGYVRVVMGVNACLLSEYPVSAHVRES
Wild-type cruzipain, sequence (P25779 whole entry): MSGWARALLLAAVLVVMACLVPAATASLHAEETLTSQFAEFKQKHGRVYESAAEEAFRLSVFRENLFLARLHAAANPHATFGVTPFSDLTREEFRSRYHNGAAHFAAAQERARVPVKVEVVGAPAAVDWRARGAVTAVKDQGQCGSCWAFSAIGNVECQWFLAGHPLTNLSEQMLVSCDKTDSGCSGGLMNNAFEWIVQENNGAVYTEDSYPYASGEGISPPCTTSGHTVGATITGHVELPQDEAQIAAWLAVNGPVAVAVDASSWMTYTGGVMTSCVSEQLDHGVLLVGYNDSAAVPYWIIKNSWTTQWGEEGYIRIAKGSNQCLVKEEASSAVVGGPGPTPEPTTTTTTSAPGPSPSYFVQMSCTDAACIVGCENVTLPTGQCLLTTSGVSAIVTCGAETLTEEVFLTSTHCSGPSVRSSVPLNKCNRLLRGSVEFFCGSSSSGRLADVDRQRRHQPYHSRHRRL

For `CC(C)C[C@H](NC(=O)c1ccc(C(C)(C)C)cc1)C(=O)N1CC[C@@H]2[C@H]1C(=O)CN2C(=O)c1cccc(Br)c1` [Example 25, (3aR,6aS)-N-{(1S)-1-[4-(3-Bromo-benzoyl)-6-oxo-hexahydro-pyrrolo[3,2-b]pyrrole-1-carbonyl]-3-methyl-butyl}-4-tert-butyl-benzamide], the Ki on CPB2.8ΔCTE and at Wild-type cruzipain (setting [1]) was below 5 µM throughout.
Turning to `CC(C)C[C@H](NC(=O)c1ccc(N(C)C)cc1)C(=O)N1CC[C@@H]2[C@H]1C(=O)CN2C(=O)c1cccnc1` [Example 21, (3aR,6aS)-4-Dimethylamino-N-{(1S)-3-methyl-1-[6-oxo-4-(pyridine-3-carbonyl)-hexahydro-pyrrolo[3,2-b]pyrrole-1-carbonyl]-butyl}-benzamide], the Ki on CPB2.8ΔCTE and at Wild-type cruzipain (setting [1]) was below 5 µM each time.
Consider `CC(C)C[C@H](NC(=O)c1ccc(C(C)(C)C)cc1)C(=O)N1CC[C@@H]2[C@H]1C(=O)CN2C(=O)Nc1ccccc1` [Example 190, (3aS,6aR)-4-(2S-2-(4-tert-Butyl-benzoylamino)-4-methyl-pentanoyl]-3-oxo-hexahydro-pyrrolo[3,2-b]pyrrole-1-carboxylic acid phenylamide], for which the Ki at CPB2.8ΔCTE and at Wild-type cruzipain (setting [1]) was below 5 µM each time.
Turning to `CN[C@@H](CC(C)C)C(=O)N1CC(=O)[C@@H]2[C@H]1CCN2C(=O)[C@H](CC(C)C)NC(=O)c1ccc(N(C)C)cc1` [Example 220, (3aR,6aS)-4-Dimethylamino-N-{(1S)-3-methyl-1-[4-((2S)-4-methyl-2-methylamino-pentanoyl)-6-oxo-hexahydro-pyrrolo[3,2-b]pyrrole-1-carbonyl]-butyl}-benzamide], the Ki on CPB2.8ΔCTE and on Wild-type cruzipain (setting [1]) was below 5 µM each time.
Regarding `CC(C)C[C@H](NC(=O)c1ccc(C(C)(C)C)cc1)C(=O)N1CC[C@@H]2[C@H]1C(=O)CN2C(=O)c1ccccc1` [Example 1, (3aR,6aS)-N-[(1S)-1-(4-Benzoyl-6-oxo-hexahydro-pyrrolo[3,2-b]pyrrole-1-carbonyl)-3-methyl-butyl]-4-tert-butylbenzamide], the Ki on CPB2.8ΔCTE and at Wild-type cruzipain was below 5 µM in each case.
With `Cc1ccc(C(=O)N2CC(=O)[C@@H]3[C@H]2CCN3C(=O)[C@H](CC(C)C)NC(=O)c2ccc(N(C)C)cc2)cc1C` [Example 114, (3aR,6aS)-4-Dimethylamino-N-{(1S)-1-[4-(3,4-dimethyl-benzoyl)-6-oxo-hexahydro-pyrrolo[3,2-b]pyrrole-1-carbonyl]-3-methyl-butyl}-benzamide], the Ki on CPB2.8ΔCTE and on Wild-type cruzipain (setting [1]) was below 5 µM throughout.
As for `CC(C)C[C@H](NC(=O)c1ccc(N(C)C)cc1)C(=O)N1CC[C@@H]2[C@H]1C(=O)CN2C(=O)[C@H](CO)NC(=O)OCc1ccccc1` [Example 147, (3aS,6aR)-((1S)-2-{4-[(2S)-2-(4-Dimethylamino-benzoylamino)-4-methyl-pentanoyl]-3-oxo-hexahydro-pyrrolo[3,2-b]pyrrole-1-yl}-1-hydroxymethyl-2-oxo-ethyl)-carbamic acid benzyl ester], the Ki on CPB2.8ΔCTE and on Wild-type cruzipain (setting [1]) was below 5 µM each time.
`COc1ccccc1C(=O)N1CC(=O)[C@@H]2[C@H]1CCN2C(=O)[C@H](CC(C)C)NC(=O)c1ccc(N(C)C)cc1` [Example 64, (3aR,6aS)-4-Dimethylamino-N-{(1S)-1-[4-(2-methoxy-benzoyl)-6-oxo-hexahydro-pyrrolo[3,2-b]pyrrole-1-carbonyl]-3-methyl-butyl}-benzamide]: the Ki on CPB2.8ΔCTE and on Wild-type cruzipain (setting [1]) was below 5 µM each time.
Take `CC(C)C[C@H](NC(=O)c1ccc(N(C)C)cc1)C(=O)N1CC[C@@H]2[C@H]1C(=O)CN2C(=O)c1ccccc1F` [Example 62, (3aR,6aS)-4-Dimethylamino-N-{(1S)-1-[4-(2-fluoro-benzoyl)-6-oxo-hexahydro-pyrrolo[3,2-b]pyrrole-1-carbonyl]-3-methyl-butyl}-benzamide]: the Ki on CPB2.8ΔCTE and at Wild-type cruzipain (setting [1]) was below 5 µM throughout.
As for `CC(C)C[C@H](NC(=O)c1ccc(C(C)(C)C)cc1)C(=O)N1CC[C@@H]2[C@H]1C(=O)CN2C(=O)c1ccc2ncsc2c1` [Example 32, (3aR,6aS)-N-{(1S)-1-[4-(Benzothiazole-6-carbonyl)-6-oxo-hexahydro-pyrrolo[3,2-b]pyrrole-1-carbonyl]-3-methyl-butyl}-4-tert-butyl-benzamide], the Ki on CPB2.8ΔCTE and on Wild-type cruzipain (setting [1]) was below 5 µM throughout.
As to `CC(C)C[C@H](NC(=O)c1ccc(N(C)C)cc1)C(=O)N1CC[C@@H]2[C@H]1C(=O)CN2C(=O)c1ccc(OC(F)(F)F)cc1` [Example 71, (3aR,6aS)-4-Dimethylamino-N-{(1S)-3-methyl-1-[6-oxo-(4-trifluoromethoxy-benzoyl)-hexahydro-pyrrolo[3,2-b]pyrrole-1-carbonyl]-butyl}-benzamide], the Ki at CPB2.8ΔCTE and on Wild-type cruzipain (setting [1]) was below 5 µM each time.
`CC(C)C[C@H](NC(=O)c1ccc(C(C)(C)C)cc1)C(=O)N1CC[C@@H]2[C@H]1C(=O)CN2C(=O)c1cccc(Oc2ccccc2)c1` [Example 24, (3aR,6aS)-4-tert-Butyl-N-{(1S)-3-methyl-1-[6-oxo-4-(3-phenoxy-benzoyl)-hexahydro-pyrrolo[3,2-b]pyrrole-1-carbonyl]-butyl}-benzamide]: the Ki on CPB2.8ΔCTE and at Wild-type cruzipain (setting [1]) was below 5 µM throughout.
Turning to `CC(C)C[C@H](NC(=O)c1ccc(N(C)C)cc1)C(=O)N1CC[C@@H]2[C@H]1C(=O)CN2C(=O)Nc1ccccc1` [Example 167, (3aS,6aR)-4-[(2S)-2-(4-Dimethylamino-benzoylamino)-4-methyl-pentanoyl]-3-oxo-hexahydro-pyrrolo[3,2-b]pyrrole-1-carboxylic acid phenylamide], the Ki at CPB2.8ΔCTE and at Wild-type cruzipain (setting [1]) was below 5 µM each time.
Consider `COC1CCCC(C(=O)N2CC(=O)[C@@H]3[C@H]2CCN3C(=O)[C@H](CC(C)C)NC(=O)c2ccc(N(C)C)cc2)C1` (stereo partly drawn) [Example 139, (3aR,6aS)-4-Dimethylamino-N-{(1S)-1-[4-(3-methoxy-cyclohexanecarbonyl)-6-oxo-hexahydro-pyrrolo[3,2-b]pyrrole-1-carbonyl]-3-methyl-butyl}-benzamide], for which the Ki at CPB2.8ΔCTE and on Wild-type cruzipain (setting [1]) was below 5 µM in each case.
On to `CC(C)CCC(=O)N1CC(=O)[C@@H]2[C@H]1CCN2C(=O)[C@H](CC(C)C)NC(=O)c1ccc(C(C)(C)C)cc1` [Example 191, (3aR,6aS)-4-tert-Butyl-N-{(1S)-3-methyl-1-[4-(4-methyl-pentanoyl)-6-oxo-hexahydro-pyrrolo[3,2-b]pyrrole-1-carbonyl]-butyl}-benzamide], for which the Ki at CPB2.8ΔCTE and on Wild-type cruzipain (setting [1]) was below 5 µM each time.
As to `CC(C)C[C@H](NC(=O)c1ccc(N(C)C)cc1)C(=O)N1CC[C@@H]2[C@H]1C(=O)CN2C(=O)c1cccc(OC(F)(F)F)c1` [Example 70, (3aR,6aS)-4-Dimethylamino-N-{(1S)-3-methyl-1-[6-oxo-4-(3-trifluoromethoxy-benzoyl)-hexahydro-pyrrolo[3,2-b]pyrrole-1-carbonyl]-butyl}-benzamide], the Ki on CPB2.8ΔCTE and at Wild-type cruzipain (setting [1]) was below 5 µM in each case.
As for `NCc1ccc(C(=O)N[C@@H](Cc2ccc(O)cc2)C(=O)N2CC[C@@H]3[C@H]2C(=O)CN3C(=O)c2ccccc2)cc1` [Example 318], the inhibition constant (Ki) on CPB2.8ΔCTE and at Wild-type cruzipain (setting [1]) was below 5 µM in each case.

The record behind these values is patent US20060100431A1, “Biologically active compounds” (Amura Therapeutics Limited, priority 2002, published 2006).
